# From US8691755B2, “Pegylated C-peptide” (Cebix AB, priority 2010, dated 2014)
# Where two headings read alike, the source gives them in different places.
# Experiments:
# [1] = Repeated-dose GLP toxicology studies with unmodified C-peptide, continuous s.c. infusion; type: in vivo, Cynomolgus monkey; settings: for No Observed Effect Level: continuous s.c. infusion; for level at time molar: cynomolgus monkey, plasma, sc, read-out: C-peptide Css
# Method: (§1) In the five GLP toxicology studies conducted with non-PEGylated C-peptide for up to 4 weeks in rats and 13 weeks in Cynomolgus monkeys, the C-peptide was continuously infused s.c. via implanted osmotic pumps. The plasma concentration of C-peptide was measured periodically throughout the studies and a steady-state concentration (Css) over the duration of exposure has been determined for each study as shown in Table E6.
# [2] = PK of unmodified C-peptide in beagle dogs, single S.C. dose (first PK study)
# Method: A pharmacokinetic (PK) study was conducted to determine the C-peptide PK profile with unmodified C-peptide in beagle dogs.
# Plasma samples were obtained after centrifugation of the blood (3,000 rpm for 10 minutes) and stored at −80° C. until analysis. […] Results were expressed as C-peptide concentrations. For the PK analysis, the below quantitation level (BQL) was treated as zero and nominal time points were used for all calculations. PK parameters were determined by standard model independent methods based on the individual plasma concentration-time data for each animal using model 200 in WinNonlin Professional 5.2.1 (Pharsight Corp., Mountain View, Calif.).
# [3] = Repeated-dose GLP toxicology studies with unmodified C-peptide, continuous s.c. infusion; type: in vivo, Sprague Dawley rat; settings: for No Observed Effect Level: continuous s.c. infusion; for level at time molar: Sprague Dawley, rat, plasma, sc, read-out: C-peptide Css
# Method: as §1
# [4] = both, beagle, dog, plasma, sc, 0.5 mg/kg
smiles,measurement,setting,value
CC(C)C[C@H](NC(=O)[C@H](C)NC(=O)[C@H](CC(C)C)NC(=O)[C@@H]1CCCN1C(=O)[C@H](CCC(N)=O)NC(=O)[C@H](CC(C)C)NC(=O)[C@H](CO)NC(=O)CNC(=O)[C@H](C)NC(=O)CNC(=O)[C@@H]1CCCN1C(=O)CNC(=O)CNC(=O)CNC(=O)[C@H](CC(C)C)NC(=O)[C@H](CCC(=O)O)NC(=O)[C@@H](NC(=O)[C@H](CCC(N)=O)NC(=O)CNC(=O)[C@@H](NC(=O)[C@H](CCC(N)=O)NC(=O)[C@H](CC(C)C)NC(=O)[C@H](CC(=O)O)NC(=O)[C@H](CCC(=O)O)NC(=O)[C@H](C)NC(=O)[C@@H](N)CCC(=O)O)C(C)C)C(C)C)C(=O)N[C@@H](CCC(=O)O)C(=O)NCC(=O)N[C@@H](CO)C(=O)N[C@@H](CC(C)C)C(=O)N[C@@H](CCC(N)=O)C(=O)O [unmodified C-peptide],No Observed Effect Level,[1]; 13 weeks,3.6 mg/kg/day
same,No Observed Effect Level,[1]; 14 days,2 mg/kg/day
same,level at time molar,"[1]; 13 weeks at NOEL 3.6 mg/kg/day, mean of days 2, 28, 37/38, 56, 91",40 nM
same,level at time molar,"[1]; 14 days at NOEL 2 mg/kg/day, mean of days 2, 10, 14",84 nM
same,AUC(0-t),[2]; [4],1860 ng·h/mL
same,Cmax,[2]; [4],757 ng/mL
same,circulating levels of C-peptide below quantitation level (BQL),[2]; single S.C. dose 0.5 mg/kg,BQL within half a day
same,tolerability (clinical abnormalities),[2]; single S.C. dose 0.5 mg/kg,well tolerated
same,No Observed Effect Level,[3]; 4 weeks,0.5 mg/kg/day
same,No Observed Effect Level,[3]; 14 days,2 mg/kg/day
same,level at time molar,"[3]; 0.5 mg/kg/day, 4 weeks at NOEL 0.5 mg/kg/day, mean of days 2, 14, 28",4.2 nM
same,level at time molar,"[3]; 2 mg/kg/day, 14 days at NOEL 2 mg/kg/day, mean of days 2, 10, 14",27 nM
